The target of one experiment is PI3Kδ (Homo sapiens (Human), UniProt O00329). Nature of the experiment: PI3Kδ enzyme activity inhibition IC50 evaluation assay. Particulars: luminescence, 25 μM ATP, 50 μM PIP2, 2 hrs room temperature. It counts as biochemical. How it is done: (§1) PI3Kα, PI3Kδ, PI3Kβ and PI3Kγ Enzyme Activity Inhibition IC50 Evaluation Assay
• 1. Buffer preparation: 50 mM HEPES, pH 7.5, 3 mM MgCl2, 1 mM EGTA, 100 mM NaCl, 0.03% CHAPS. • 2. Compound was formulated in 100% DMSO in a concentration gradient, and added to a 384-well plate to a final DMSO concentration of 1%. • 3. PI3Kα, PI3Kδ, PI3Kβ and PI3Kγ enzymes were diluted to an optimum concentration with the following buffer: 50 mM HEPES, pH 7.5, 3 mM MgCl2, 1 mM EGTA, 100 mM NaCl, 0.03% CHAPS, 2 mM DTT, and transferred to a 384-well plate and incubated with the compound for a certain time. • 4. […] For PI3Kβ and PI3Kγ, it was still necessary to further add 10 μL ADP-Glo Detection Reagent, and then equilibrated at room temperature for 30 minutes. • 5. Read Luminescense with FlexStation, and calculate the inhibition rate as the average of two tests.

For another experiment, the target named is PI3Kα (Homo sapiens (Human), UniProt P42336). The experiment can be described thus: PI3Kα enzyme activity inhibition IC50 evaluation assay. It is filed as biochemical. Particulars: ratio PI3Kα vs PI3Kδ. On the procedure: as §1
Sequence of PI3Kα (P42336 whole entry): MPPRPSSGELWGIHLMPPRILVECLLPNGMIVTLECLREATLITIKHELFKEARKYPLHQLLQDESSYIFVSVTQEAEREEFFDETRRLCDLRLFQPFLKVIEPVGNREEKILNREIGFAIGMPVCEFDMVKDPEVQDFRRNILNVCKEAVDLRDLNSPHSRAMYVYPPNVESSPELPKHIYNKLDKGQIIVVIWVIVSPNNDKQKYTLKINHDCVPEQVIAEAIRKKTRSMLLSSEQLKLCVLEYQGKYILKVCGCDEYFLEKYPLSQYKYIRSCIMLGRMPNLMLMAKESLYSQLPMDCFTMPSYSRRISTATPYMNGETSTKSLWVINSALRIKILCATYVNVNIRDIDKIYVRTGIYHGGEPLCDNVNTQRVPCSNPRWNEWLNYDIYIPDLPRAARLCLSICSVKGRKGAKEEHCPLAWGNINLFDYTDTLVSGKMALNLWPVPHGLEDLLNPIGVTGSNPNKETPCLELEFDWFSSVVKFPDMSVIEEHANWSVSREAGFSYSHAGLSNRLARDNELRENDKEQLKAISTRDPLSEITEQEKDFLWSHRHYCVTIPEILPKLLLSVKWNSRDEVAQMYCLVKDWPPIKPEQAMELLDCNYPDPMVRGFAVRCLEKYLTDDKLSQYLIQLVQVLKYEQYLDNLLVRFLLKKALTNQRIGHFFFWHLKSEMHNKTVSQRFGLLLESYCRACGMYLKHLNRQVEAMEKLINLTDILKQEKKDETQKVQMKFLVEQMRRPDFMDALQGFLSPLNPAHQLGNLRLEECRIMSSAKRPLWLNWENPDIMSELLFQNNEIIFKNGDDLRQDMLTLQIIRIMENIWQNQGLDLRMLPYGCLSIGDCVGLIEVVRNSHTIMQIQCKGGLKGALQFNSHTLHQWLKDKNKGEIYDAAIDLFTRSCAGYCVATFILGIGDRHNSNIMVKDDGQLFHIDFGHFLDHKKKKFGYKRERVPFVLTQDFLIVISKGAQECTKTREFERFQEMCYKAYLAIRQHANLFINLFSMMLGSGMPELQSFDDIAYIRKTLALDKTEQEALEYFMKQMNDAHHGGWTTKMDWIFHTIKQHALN
Sequence of PI3Kα (P27986 whole entry partner): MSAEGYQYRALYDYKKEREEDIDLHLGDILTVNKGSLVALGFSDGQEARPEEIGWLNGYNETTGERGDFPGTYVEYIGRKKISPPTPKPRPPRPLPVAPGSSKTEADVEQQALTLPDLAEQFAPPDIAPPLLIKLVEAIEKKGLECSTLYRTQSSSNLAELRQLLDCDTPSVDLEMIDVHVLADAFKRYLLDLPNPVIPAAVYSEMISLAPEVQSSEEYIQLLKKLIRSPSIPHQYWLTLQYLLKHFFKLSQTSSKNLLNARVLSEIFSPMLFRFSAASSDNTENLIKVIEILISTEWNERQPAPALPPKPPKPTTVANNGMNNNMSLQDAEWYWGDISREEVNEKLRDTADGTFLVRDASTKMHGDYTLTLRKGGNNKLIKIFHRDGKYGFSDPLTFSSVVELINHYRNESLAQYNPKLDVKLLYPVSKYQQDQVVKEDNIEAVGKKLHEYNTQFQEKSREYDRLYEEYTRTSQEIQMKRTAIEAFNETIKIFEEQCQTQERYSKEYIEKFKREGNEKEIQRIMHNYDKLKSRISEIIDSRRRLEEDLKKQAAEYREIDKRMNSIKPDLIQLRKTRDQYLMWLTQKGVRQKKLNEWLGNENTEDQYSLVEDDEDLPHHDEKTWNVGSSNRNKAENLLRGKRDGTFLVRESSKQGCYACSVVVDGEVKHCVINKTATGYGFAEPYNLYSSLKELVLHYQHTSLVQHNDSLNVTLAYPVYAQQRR
• 1. Buffer preparation: 50 mM HEPES, pH 7.5, 3 mM MgCl2, 1 mM EGTA, 100 mM NaCl, 0.03% CHAPS. • 2. Compound was formulated in 100% DMSO in a concentration gradient, and added to a 384-well plate to a final DMSO concentration of 1%. • 3. PI3Kα, PI3Kδ, PI3Kβ and PI3Kγ enzymes were diluted to an optimum concentration with the following buffer: 50 mM HEPES, pH 7.5, 3 mM MgCl2, 1 mM EGTA, 100 mM NaCl, 0.03% CHAPS, 2 mM DTT, and transferred to a 384-well plate and incubated with the compound for a certain time. • 4. Substrate was diluted to an optimum concentration with the following buffer: 50 mM HEPES, pH 7.5, 3 mM MgCl2, 1 mM EGTA, 100 mM NaCl, 0.03% CHAPS, 2 mM DTT, 50 μM PIP2, 25 μM ATP; then added to a 384-well plate to initiate the reaction, and for PI3Kα, PI3Kβ and PI3Kγ at room temperature reacted for 1 hr, for PI3Kδ at room temperature reacted for 2 hrs. For PI3Kβ and PI3Kγ, it was still necessary to further add 10 μL ADP-Glo Detection Reagent, and then equilibrated at room temperature for 30 minutes. • 5. Read Luminescense with FlexStation, and calculate the inhibition rate as the average of two tests.

Each structure is given as a SMILES string. pIC50: −log10 of the molar value.

Sequence of PI3Kδ (O00329 whole entry): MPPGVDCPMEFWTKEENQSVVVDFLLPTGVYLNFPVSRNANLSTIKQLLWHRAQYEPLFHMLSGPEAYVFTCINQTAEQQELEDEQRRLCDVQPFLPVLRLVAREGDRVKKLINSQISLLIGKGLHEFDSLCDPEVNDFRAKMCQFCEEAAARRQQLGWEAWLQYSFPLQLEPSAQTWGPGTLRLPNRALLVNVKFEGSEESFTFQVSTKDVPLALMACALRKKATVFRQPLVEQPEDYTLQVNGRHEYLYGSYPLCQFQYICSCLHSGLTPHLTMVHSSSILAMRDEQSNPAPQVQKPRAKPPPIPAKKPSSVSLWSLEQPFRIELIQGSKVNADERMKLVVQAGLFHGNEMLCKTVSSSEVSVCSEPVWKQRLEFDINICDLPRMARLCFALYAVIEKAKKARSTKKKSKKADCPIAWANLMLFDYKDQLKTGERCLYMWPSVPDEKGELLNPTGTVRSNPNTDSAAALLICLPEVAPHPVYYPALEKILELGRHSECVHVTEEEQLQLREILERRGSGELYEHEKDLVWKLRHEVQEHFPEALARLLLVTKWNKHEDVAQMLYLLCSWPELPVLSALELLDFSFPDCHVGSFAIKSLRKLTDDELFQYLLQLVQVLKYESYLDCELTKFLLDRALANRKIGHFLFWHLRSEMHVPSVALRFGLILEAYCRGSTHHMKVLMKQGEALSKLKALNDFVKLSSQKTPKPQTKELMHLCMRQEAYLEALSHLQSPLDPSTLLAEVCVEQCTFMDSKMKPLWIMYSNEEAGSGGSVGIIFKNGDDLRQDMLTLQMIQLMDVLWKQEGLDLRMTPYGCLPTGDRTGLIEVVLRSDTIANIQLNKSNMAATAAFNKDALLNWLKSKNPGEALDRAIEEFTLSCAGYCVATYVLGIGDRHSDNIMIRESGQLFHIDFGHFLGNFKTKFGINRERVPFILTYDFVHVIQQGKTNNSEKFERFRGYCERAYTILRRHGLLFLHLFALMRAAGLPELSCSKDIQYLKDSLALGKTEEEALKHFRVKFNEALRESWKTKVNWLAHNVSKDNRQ
Sequence of PI3Kδ (P27986 whole entry partner): as the sequence (P27986 whole entry partner) above

As to `COc1ncc(-c2nc(N3CCOCC3)nc3c(CN4CC(C(C)(C)O)C4)c(C)sc23)cc1NS(C)(=O)=O` [Compound 151], the pIC50 against PI3Kδ is 7.82. Also, the α/δ selectivity at PI3Kα amounted to 41.

In turn, `COc1ncc(-c2nc(N3CCOCC3)nc3c(OC4CCOCC4)c(C)sc23)cc1NS(C)(=O)=O` [Compound 152] had a pIC50 against PI3Kδ of 7.81. Further, at PI3Kα, the α/δ selectivity was 12.

At PI3Kδ, `COc1ncc(-c2nc(N3CCOCC3)nc3c(CN4CCN(C)CC4)csc23)cc1NS(C)(=O)=O` [Compound 51] had a pIC50 of 7.96. Further, on PI3Kα, the α/δ selectivity was 103.

On to `COc1ncc(-c2nc(N3CCOCC3)nc3c(CN4CCS(=O)(=O)CC4)c(C)sc23)cc1NS(C)(=O)=O` [Compound 113], for which the pIC50 against PI3Kδ was 8.18. The α/δ selectivity on PI3Kα is 27.

Regarding `COc1ncc(-c2nc(N3CCOCC3)nc3c(CN4CCC(C(C)(C)F)CC4)c(C)sc23)cc1NS(=O)(=O)C1CC1` [Compound 80], the pIC50 on PI3Kδ is 7.41. Besides, the α/δ selectivity at PI3Kα is recorded as above 256.

Consider `COc1ncc(-c2nc(N3CCOCC3)nc3c(CN4CCC(N(C)C)CC4)csc23)cc1NS(C)(=O)=O` [Compound 43], for which the pIC50 against PI3Kδ was 8.40. In addition, on PI3Kα, the α/δ selectivity amounted to 105.

Turning to `COc1ncc(-c2nc(N3CCOCC3)nc3c(CN4CCN(C(C)(C)C(N)=O)CC4)csc23)cc1NS(C)(=O)=O` [Compound 57], the pIC50 at PI3Kδ was 8.55. For the same compound, the α/δ selectivity at PI3Kα turned out to be 103.

As for `COc1ncc(-c2nc(N3CCOCC3)nc3c(CN4CCN(C5CCOCC5)CC4)csc23)cc1NS(C)(=O)=O` [Compound 33], on PI3Kδ, the pIC50 was 8.38. Further, the α/δ selectivity at PI3Kα is 51.

With `Cc1cn(-c2nc(N3CCOCC3)nc3c(CN4CCN(C(=O)C5CC5)CC4)csc23)c(C)n1` [Compound 37], at PI3Kδ, the pIC50 was 7.54. The α/δ selectivity at PI3Kα is 38.

As for `CCN(CC)C1CN(Cc2c(C)sc3c(-c4cnc(OC)c(NS(C)(=O)=O)c4)nc(N4CCOCC4)nc23)C1` [Compound 122], the pIC50 against PI3Kδ is 8.05. Also, on PI3Kα, the α/δ selectivity turned out to be 172.

At PI3Kδ, `COC(=O)N1CCN(Cc2c(C)sc3c(-c4cnc(OC)c(NS(C)(=O)=O)c4)nc(N4CCOCC4)nc23)CC1` [Compound 114] gave a negative-log IC50 (pIC50) of 8.30. Moreover, at PI3Kα, the α/δ selectivity is on record as 44.

In turn, `COc1ncc(-c2nc(N3CCOCC3)nc3c(CN4CC5CC4CN5C4COC4)csc23)cc1NS(C)(=O)=O` (centres unmarked) [Compound 48] gave a pIC50 against PI3Kδ of 8.16. Also, the α/δ selectivity at PI3Kα stood at 52.

On to `COc1ncc(-c2nc(N3CCOCC3)nc3c(CN4CCC(N(C)C(=O)OC(C)(C)C)CC4)csc23)cc1NS(C)(=O)=O` [Compound 52], for which, on PI3Kδ, the pIC50 is 7.44. In addition, the α/δ selectivity at PI3Kα was found to be 252.

In turn, `COc1ncc(-c2nc(N3CCOCC3)nc3c(CN4CCN(C5CCN(C)CC5)CC4)csc23)cc1NS(C)(=O)=O` [Compound 39] gave a negative-log IC50 (pIC50) against PI3Kδ of 8.04. The α/δ selectivity on PI3Kα is recorded as 159.

`COc1ncc(-c2nc(N3CCOCC3)nc3c(CN4CCC(N5CCCC5)C(F)(F)C4)c(C)sc23)cc1NS(C)(=O)=O` (centres unmarked) [Compound 123] gave a negative logarithm of the IC50 (pIC50) at PI3Kδ of 8.17. The α/δ selectivity at PI3Kα came out at 175.

Take `COc1ncc(-c2nc(N3CCOCC3)nc3c(CN4CCN(C(=O)C5CCCCC5)CC4)csc23)cc1NS(C)(=O)=O` [Compound 40]: the pIC50 against PI3Kδ was 7.77. Besides, the α/δ selectivity at PI3Kα was 41.

`COc1ncc(-c2nc(N3CCOCC3)nc3cc(C)sc23)cc1NS(C)(=O)=O` [Compound 97] gave a pIC50 on PI3Kδ of 6.72. In addition, the α/δ selectivity at PI3Kα was 10.

In turn, `COc1ncc(-c2nc(N3CCOCC3)nc3c(CN4CCC(CO)CC4)c(C)sc23)cc1NS(C)(=O)=O` [Compound 117] showed a pIC50 at PI3Kδ of 8.14. The α/δ selectivity at PI3Kα was 213.

In turn, `COc1ncc(-c2nc(N3CCOCC3)nc3c(CN4CCC5(CC4)CC5)c(C)sc23)cc1NS(C)(=O)=O` [Compound 137] had a pIC50 against PI3Kδ of 7.96. The α/δ selectivity on PI3Kα is 309.

The compound `COc1ncc(-c2nc(N3CCOCC3)nc3c(CN4CCC(N5CCC[C@H]5C(F)(F)F)CC4)c(C)sc23)cc1NS(C)(=O)=O` [Compound 124] had a pIC50 at PI3Kδ of 8.51. Besides, the α/δ selectivity on PI3Kα is listed as 430.

On PI3Kδ, `Cc1cn(-c2nc(N3CCOCC3)nc3c(CN4CCN(C(=O)C(C)C)CC4)csc23)c(C)n1` [Compound 20] gave a pIC50 of 7.18. The α/δ selectivity at PI3Kα was found to be 54.

On PI3Kδ, `COc1ncc(-c2nc(N3CCOCC3)nc3c(CN4CCN(C(=O)N5CCCC5)CC4)csc23)cc1NS(C)(=O)=O` [Compound 49] showed a pIC50 of 8.24. Moreover, the α/δ selectivity on PI3Kα worked out at 15.

Compound `Cc1sc2c(-c3cnc(Cl)c(NS(C)(=O)=O)c3)nc(N3CCOCC3)nc2c1CN1CCC(C(C)(C)O)CC1` [Compound 120] had a pIC50 on PI3Kδ of 8.30. Besides, on PI3Kα, the α/δ selectivity is on record as 24.

In the case of `COc1ncc(-c2nc(N3CCOCC3)nc3c(CN4CCC(N5CC=CC5)CC4)c(C)sc23)cc1NS(C)(=O)=O` [Compound 132], the pIC50 at PI3Kδ was 8.00. Further, on PI3Kα, the α/δ selectivity stood at 35.

`COc1ncc(-c2nc(N3CCOCC3)nc3c(CN4CCC(N5CCC[C@H]5C)CC4)c(C)sc23)cc1NS(C)(=O)=O` [Compound 125] showed a pIC50 against PI3Kδ of 8.59. Moreover, at PI3Kα, the α/δ selectivity turned out to be 239.

`c1cc(-c2nc(N3CCOCC3)nc3c(CN4CCC(N5CCOCC5)CC4)csc23)c2cc[nH]c2c1` [Compound 9] had a pIC50 against PI3Kδ of 7.30. Moreover, the α/δ selectivity on PI3Kα is reported as above 200.

`COc1ncc(-c2nc(N3CCOCC3)nc3c(CN4CC[C@@H](N5CCC[C@@H]5C)C4)c(C)sc23)cc1NS(C)(=O)=O` [Compound 134]: on PI3Kδ, the pIC50 is 8.40. In addition, the α/δ selectivity on PI3Kα was 188.

`COc1ncc(-c2nc(N3CCOCC3)nc3c(CN4CCC(C(C)(C)O)CC4)csc23)cc1NS(=O)(=O)c1ccccc1` [Compound 41] gave a negative-log IC50 (pIC50) against PI3Kδ of 7.94. Besides, on PI3Kα, the α/δ selectivity is 323.

`COc1ncc(-c2nc(N3CCOCC3)nc3c(CN4CCN(C(=O)NCC(F)(F)F)CC4)csc23)cc1NS(C)(=O)=O` [Compound 63]: the negative logarithm of the IC50 (pIC50) on PI3Kδ was 7.92. In addition, on PI3Kα, the α/δ selectivity was 27.

In the case of `COc1ncc(-c2nc(N3CCOCC3)nc3c(CN4CCN(C)CC4)csc23)cc1NS(=O)(=O)c1ccc(F)cc1F` [Compound 68], the pIC50 against PI3Kδ is 7.15. Besides, the α/δ selectivity on PI3Kα stood at 19.

For `COc1ncc(-c2nc(N3CCOCC3)nc3c(CN4CC5CC5C4)c(C)sc23)cc1NS(C)(=O)=O` (centres unmarked) [Compound 141], the negative logarithm of the IC50 (pIC50) against PI3Kδ is 8.05. Besides, the α/δ selectivity at PI3Kα was found to be 120.

`CC(C)(O)CN1CCN(Cc2csc3c(-c4cccc5[nH]ccc45)nc(N4CCOCC4)nc23)CC1` [Compound 13] showed a negative logarithm of the IC50 (pIC50) against PI3Kδ of 7.28. For the same compound, on PI3Kα, the α/δ selectivity is above 192.

Compound `COc1ncc(-c2nc(N3CCOCC3)nc3c(CN4CCN(S(C)(=O)=O)CC4)c(C)sc23)cc1NS(C)(=O)=O` [Compound 61] gave a pIC50 against PI3Kδ of 8.33. For the same compound, the α/δ selectivity at PI3Kα amounted to 12.

Turning to `CC(C)(C)N1CCN(Cc2csc3c(-c4cccc5[nH]ccc45)nc(N4CCOCC4)nc23)CC1` [Compound 15], the pIC50 at PI3Kδ is 7.47. The α/δ selectivity at PI3Kα is above 294.

At PI3Kδ, `COc1ncc(-c2nc(N3CCOCC3)nc3c(CN4CCC(N(C)C)CC4)c(C)sc23)cc1NS(C)(=O)=O` [Compound 93] gave a pIC50 of 8.00. Further, at PI3Kα, the α/δ selectivity is on record as 82.

Compound `COc1ncc(-c2nc(N3CCOCC3)nc3c(CN4CCc5sccc5C4)c(C)sc23)cc1NS(C)(=O)=O` [Compound 143] gave a pIC50 at PI3Kδ of 7.49. Moreover, on PI3Kα, the α/δ selectivity is 107.

In the case of `COc1ncc(-c2nc(N3CCOCC3)nc3c(CN4CCN(C)CC4)csc23)cc1NS(=O)(=O)C1CC1` [Compound 69], the pIC50 on PI3Kδ is 7.51. On PI3Kα, the α/δ selectivity worked out at 79.

Consider `COc1ncc(-c2nc(N3CCOCC3)nc3c(CN4CCN(C(=O)C(F)(F)F)CC4)csc23)cc1NS(C)(=O)=O` [Compound 62], for which the pIC50 at PI3Kδ was 8.25. Further, the α/δ selectivity at PI3Kα came to 104.

In turn, `COc1ncc(-c2nc(N3CCOCC3)nc3c(CN4CCC(C5CC5)CC4)c(C)sc23)cc1NS(C)(=O)=O` [Compound 131] showed a pIC50 against PI3Kδ of 8.21. In addition, the α/δ selectivity on PI3Kα is given as 627.

Compound `COc1ncc(-c2nc(N3CCOCC3)nc3c(CN4CCC(C(=O)NCC(F)(F)F)CC4)csc23)cc1NS(C)(=O)=O` [Compound 42] showed a pIC50 at PI3Kδ of 7.89. Besides, the α/δ selectivity at PI3Kα was determined as 152.

The pIC50 is −log10 of the IC50, conventionally taken in molar units. Read a high pIC50 as a low IC50.

(Values after US9745321B2, “Fused pyrimidine compound, intermediate, preparation method therefor, and composition and application thereof” (SHANGHAI YINGLI PHARMACEUTICAL CO., LTD, priority 2013, dated 2017).)
